IC50 data for 46 molecules are collected here from ChEMBL document CHEMBL1125787, “Synthesis and anti-HIV-1 activity of 4,5,6,7-tetrahydro-5-methylimidazo[4,5,1-jk][1,4]benzodiazepin-2(1H)-on e (TIBO) derivatives. 2” (J Med Chem, 1991).

For the experiment, the system named is MT4. In words: Ability to block replication of HIV-1 virus in MT-4 cells. The following applies: Homo sapiens.
Molecule `CC(C)=CCN1Cc2cccc3[nH]c(=S)n(c23)C[C@@H]1C` returned an IC50 of 0.097 µM.
Regarding `CC(C)=CCN1Cc2cccc3nc(O)n(c23)CC1C` (stereo unspecified), half-maximal inhibition (IC50) required 9.8 µM.
For `CCCN1Cc2cccc3c2N(CC1C)C(=O)C3` (stereo unspecified), the half-maximal inhibitory concentration (IC50) was above 250 µM.
The value for `CCCN1Cc2cccc3[nH]c(=S)n(c23)CC1C` (stereo unspecified) was 1.7 µM; that for `CCCN1Cc2cccc3nnn(c23)CC1C` (stereo unspecified) was above 10 µM; that for `CCCN1Cc2cccc3c2n(c(=O)n3C)CC1C` (stereo unspecified) was above 250 µM.
`C=C(C)CN1Cc2cccc3c2C(O)(CC1C)C(=O)N3` (stereo unspecified) displayed an IC50 above 250 µM.
In turn, `CC1CN2C(=O)CNc3cc(Cl)cc(c32)CN1CC1CC1` (stereo unspecified) came in with a half-maximal inhibitory concentration (IC50) above 10 µM.
The molecule `C=CCN1Cc2cccc3c2C(CC1C)C(S)=N3` (stereo unspecified) had a half-inhibitory concentration (IC50) above 250 µM.
`CCCN1Cc2cccc3c2n(c(=O)n3CC#N)CC1C` (stereo unspecified) came in with a half-maximal inhibitory concentration (IC50) above 250 µM.
On to `C=C(C)CN1Cc2cccc3nc(S)n(c23)CC1C` (stereo unspecified), for which inhibition was half-maximal at 0.026 µM (IC50).
In turn, `CC(C)=CCN1Cc2cc(Cl)cc3[nH]c(=O)n(c23)C[C@H]1C` showed an IC50 of 4.2 µM.
For `C=C(C)CN1Cc2cccc3c2C(CC1C)C(=O)N3` (stereo unspecified), the IC50 is above 50 µM.
With `CC1Cn2c(S)nc3cccc(c32)CN1CC1CC1` (stereo unspecified), the midpoint of inhibition, the IC50, lay at 0.06 µM.
The same measure for `CC(C)=CCN1Cc2cccc3nc(N(C)C)n(c23)CC1C` (stereo unspecified): above 250 µM.
`CNc1nc2cccc3c2n1CC(C)N(CC=C(C)C)C3` (stereo unspecified) registered a concentration for half-maximal inhibition (IC50) above 250 µM.
Turning to `CCC(=CCN1Cc2cc(Cl)cc3nc(O)n(c23)CC1C)CC` (stereo unspecified), the concentration for half-maximal inhibition (IC50) was determined as 0.029 µM.
`CC(C)=CCN1Cc2cc(Cl)cc3nc(S)n(c23)C[C@H]1C` came in with a half-inhibitory concentration (IC50) of 0.39 µM.
The same measure for `CC1Cn2c(=O)oc3cccc(c32)CN1CC1CCC1` (stereo unspecified): above 2 µM; for `CC1Cn2c(O)nc3cccc(c32)CN1CC1CC1` (stereo unspecified): 10 µM.
As to `CC1Cn2c(O)nc3cc(Cl)cc(c32)CN1CC1CCC1` (stereo unspecified), the IC50 came out at 0.38 µM.
`CCCN1Cc2cccc3c2n(c(=O)n3C(C)C)CC1C` (stereo unspecified) yielded an IC50 above 250 µM.
The molecule `CCCN1Cc2cccc3[nH]c(=O)c(=O)n(c23)CC1C` (stereo unspecified) registered an IC50 above 250 µM.
`CC1Cn2c(N=C(N)N)nc3cc(Cl)cc(c32)CN1CC1CC1` (stereo unspecified) returned an IC50 above 50 µM.
Regarding `CC(C)=CCN1Cc2cc(Cl)cc3nc(NC#N)n(c23)CC1C` (stereo unspecified), the 50% inhibitory concentration (IC50) is above 250 µM.
The molecule `C=CCn1c(=O)n2c3c(cccc31)CN(CCC)C(C)C2` (stereo unspecified) displayed a half-maximal inhibitory concentration (IC50) above 50 µM.
`O=c1[nH]cnc2c1ncn2[C@H]1CC[C@@H](CO)O1` [DIDANOSINE] came in with a half-maximal inhibitory concentration (IC50) of 5.5 µM.
The molecule `CC(C)=CCN1Cc2cc(Cl)cc3[nH]c(=O)n(c23)C[C@@H]1C` returned an IC50 of 0.18 µM.
The same measure for `CC(C)=CCN1Cc2cc(Cl)cc3nc([SeH])n(c23)CC1C` (stereo unspecified): 0.018 µM.
Turning to `CC1CN2c3c(cc(Cl)cc3NS2(=O)=O)CN1CC1CC1` (stereo unspecified), the half-maximal inhibitory concentration (IC50) was above 10 µM.
The value for `COc1nc2cccc3c2n1CC(C)N(CC=C(C)C)C3` (stereo unspecified) was above 250 µM; that for `Cc1cn([C@H]2C[C@H](N=[N+]=[N-])[C@@H](CO)O2)c(=O)[nH]c1=O` [ZIDOVUDINE] was 0.004 µM; that for `C/N=C(/S)N1CC(C)N(CC2CC2)Cc2cc(Cl)ccc21` (stereo unspecified) was above 10 µM.
`CCCN1Cc2cccc3[nH]c(=O)n(c23)CC1C` (stereo unspecified) showed a concentration for half-maximal inhibition (IC50) of 60 µM.
`COC(=O)Nc1nc2cc(Cl)cc3c2n1C[C@@H](C)N(CC=C(C)C)C3` yielded an IC50 above 10 µM.
`CC(C)=CCN1Cc2cc(Cl)cc3[nH]c(=S)n(c23)C[C@@H]1C` displayed an IC50 of 0.039 µM.
In turn, `CC1Cn2c(O)nc3cc(Cl)cc(c32)CN1CCC1CC1` (stereo unspecified) gave a concentration for half-maximal inhibition (IC50) of 2.2 µM.
`CCCN1Cc2cccc3[nH]cc(c23)CC1C` (stereo unspecified) showed an IC50 above 250 µM.
As to `C=C(C)CN1Cc2cccc3c2C(CC1C)C(S)=N3` (stereo unspecified), the half-maximal inhibitory concentration (IC50) was above 10 µM.
`CCCN1Cc2cccc3[nH]c(Cl)c(c23)CC1C` (stereo unspecified) displayed an IC50 above 50 µM.
As for `C=C(C)CN1Cc2cccc3ncn(c23)CC1C` (stereo unspecified), the IC50 is above 2 µM.
The value for `CC(C)=CCN1Cc2cccc3nc(Sc4ccccc4)n(c23)CC1C` (stereo unspecified) was above 50 µM; that for `CC1Cn2c(S)nc3cc(Cl)cc(c32)CN1CC1CCC1` (stereo unspecified) was 0.026 µM.
As to `C=C(C)CN1Cc2cccc3[nH]c(=O)n(c23)CC1C` (stereo unspecified), the IC50 turned out to be 15.2 µM.
`CC1Cn2c(S)nc3cc(Cl)cc(c32)CN1CCC1CC1` (stereo unspecified) gave an IC50 of 0.42 µM.
For the molecule `CCC(=CCN1Cc2cc(Cl)cc3nc(S)n(c23)CC1C)CC` (stereo unspecified), the IC50 is 0.012 µM.
